Tests used:
[1] = test system: K562 (chronic myelogenous leukaemia); test: Effect on tumor cell lines, viable cell count by trypan blue exclusion (Latham et al.): K562; assay type: cell-based; conditions: K562 chronic myelogenous leukaemia cells, viable cell count 96 hours after treatment
DU145 (prostate cancer) = test: Effect on tumor cell lines, viable cell count by trypan blue exclusion (Latham et al.): DU145; assay type: cell-based; conditions: DU145 prostate cancer cells, viable cell count 96 hours after treatment

Row | SMILES | IC50 ([1]; Homo sapiens, K562, 96 h) [µM] | melting point [°C] | IC50 (DU145 (prostate cancer); Homo sapiens, DU-145, 96 h) [µM] | IC50 [1] [µM] | IC50 (DU145 (prostate cancer)) [µM]
1 | N#C/C(=C\c1c(F)c(F)c(F)c(F)c1F)S(=O)(=O)Cc1ccc(Br)cc1 [Example 19] | 10 | 146 to 148 | 50 |  | 
2 | N#C/C(=C\c1ccc(Cl)cc1)S(=O)(=O)Cc1ccc(Cl)cc1Cl [Example 100] | > 100 | 119 to 125 | > 100 |  | 
3 | N#C/C(=C\c1c[nH]c2ccc(Cl)cc12)S(=O)(=O)Cc1ccc(Cl)cc1Cl [Example 91] |  | 150 to 161 |  | 10 to 25 | 10 to 25
4 | Cc1ccc(NS(=O)(=O)/C(C#N)=C/c2ccc(N(C)C)cc2)c(C)c1 [Example 255] | 25 to 50 | 168 to 171 | 25 to 50 |  | 
5 | N#C/C(=C\c1ccc(F)cc1F)S(=O)(=O)Nc1ccc(Br)cc1 [Example 226] | 25 to 50 | 165 to 166 | 25 to 50 |  | 
6 | N#C/C(=C\c1c[nH]c2ccccc12)S(=O)(=O)Cc1ccc(F)cc1 [Example 81] | 50 to 100 | 140 to 152 | 50 to 100 |  | 
7 | N#C/C(=C\c1ccc(F)cc1Cl)S(=O)(=O)Cc1ccc(Cl)cc1Cl [Example 95] | 50 to 100 | 142 to 148 | 50 to 100 |  | 
8 | N#C/C(=C\c1c[nH]c2ccc(Br)cc12)S(=O)(=O)Nc1ccc(Br)cc1 [Example 222] | 25 to 50 | 242 to 253 | 25 to 50 |  | 
9 | COc1cc(/C=C(\C#N)S(=O)(=O)Nc2ccc(F)cc2)cc(OC)c1OC [Example 249] | > 100 | 179 to 182 | > 100 |  | 
10 | COc1ccc(OC)c(/C=C(\C#N)S(=O)(=O)Cc2ccccc2)c1 [Example 135] | > 100 | 140 to 143 | > 100 |  | 
11 | Cc1ccc(NS(=O)(=O)/C(C#N)=C/c2ccc(Cl)c(Cl)c2)c(C)c1 [Example 274] | 50 to 100 | 141 to 143 | 50 to 100 |  | 
12 | N#C/C(=C\c1ccc(F)cc1F)S(=O)(=O)Nc1ccc(F)cc1 [Example 240] | 50 to 100 | 135 to 139 | 50 to 100 |  | 
13 | N#C/C(=C\c1ccc(Br)cc1)S(=O)(=O)Cc1ccc(F)cc1 [Example 82] | > 100 | 155 to 168 | > 100 |  | 
14 | COc1ccc(NS(=O)(=O)/C(C#N)=C/c2ccc(Br)cc2)cc1 [Example 291] |  | 102 to 103 |  | 50 to 100 | 50 to 100
15 | Cc1ccc(/C=C(\C#N)S(=O)(=O)Cc2ccc(Cl)cc2Cl)s1 [Example 63] | > 100 | 118 to 124 | > 100 |  | 
16 | COc1cc(OC)c(OC)cc1/C=C(\C#N)S(=O)(=O)Nc1ccc(F)cc1 [Example 237] | > 100 | 184 to 186 | > 100 |  | 
17 | Cc1ccc(NS(=O)(=O)/C(C#N)=C/c2ccc(Br)cc2)c(C)c1 [Example 262] | 10 to 25 | 164 to 166 | 25 to 50 |  | 
18 | N#C/C(=C\c1ccc(Cl)cc1)S(=O)(=O)Nc1ccccc1Oc1ccccc1 [Example 207] | 50 to 100 | 136 to 138 | 50 to 100 |  | 

Row | SMILES | IC50 ([1]; Homo sapiens, K562, 96 h) [µM] | melting point [°C] | IC50 (DU145 (prostate cancer); Homo sapiens, DU-145, 96 h) [µM] | IC50 [1] [µM] | IC50 (DU145 (prostate cancer)) [µM]
19 | N#C/C(=C\c1c[nH]c2ccc(Cl)cc12)S(=O)(=O)Cc1ccc(F)cc1 [Example 77] | 50 to 100 | 250 to 265 | 50 to 100 |  | 
20 | N#C/C(=C\c1ccc(F)cc1F)S(=O)(=O)Cc1ccccc1 [Example 142] | > 100 | 133 to 135 | > 100 |  | 
21 | CN(C)c1ccc(/C=C(\C#N)S(=O)(=O)Nc2ccccc2Oc2ccccc2)cc1 [Example 206] | > 100 | 158 to 160 | > 100 |  | 
22 | COc1ccc(NS(=O)(=O)/C(C#N)=C/c2c(OC)cc(OC)cc2OC)cc1 [Example 191] |  | 134 to 136 |  | 1 to 10 | 1 to 10
23 | N#C/C(=C\c1c[nH]c2ccc(Cl)cc12)S(=O)(=O)Cc1ccc(Cl)cc1 [Example 73] | 10 to 25 | 172 to 182 | 25 to 50 |  | 
24 | N#C/C(=C\c1ccccc1Oc1ccccc1)S(=O)(=O)Nc1ccccc1Oc1ccccc1 [Example 210] | 1 to 10 | 138 to 140 | 25 to 50 |  | 
25 | Cc1ccc(C)c(/C=C(\C#N)S(=O)(=O)Nc2ccc(F)cc2)c1 [Example 238] | 50 to 100 | 161 to 164 | > 100 |  | 
26 | N#C/C(=C\c1ccccc1Cl)S(=O)(=O)Cc1ccc(Br)cc1 [Example 144] | 25 to 50 | 143 to 147 | > 100 |  | 
27 | N#C/C(=C\c1ccc(Br)cc1)S(=O)(=O)Cc1ccc(Cl)cc1 [Example 45] | 50 to 100 | 168 to 180 | 50 to 100 |  | 
28 | CC(=O)Oc1ccc(/C=C(\C#N)S(=O)(=O)Cc2ccc(Cl)cc2)cc1 [Example 57] | 25 to 50 | 192 to 202 | 25 to 50 |  | 
29 | COc1ccc(/C=C(\C#N)S(=O)(=O)Cc2ccccc2)cc1OC [Example 133] | 50 to 100 | 170 to 174 | > 100 |  | 
30 | Cc1ccc(NS(=O)(=O)/C(C#N)=C/c2ccc(C)s2)c(C)c1 [Example 265] | 25 to 50 | 158 to 160 | 50 to 100 |  | 
31 | COc1ccc(NS(=O)(=O)/C(C#N)=C/c2cc(OC)c(OC)cc2OC)cc1 [Example 284] | 25 to 50 | 171 to 173 | > 100 |  | 
32 | N#C/C(=C\c1c[nH]c2ccc(Br)cc12)S(=O)(=O)Cc1ccc(Cl)cc1 [Example 72] | > 100 | 240 to 250 | > 100 |  | 
33 | Cc1ccc(/C=C(\C#N)S(=O)(=O)Cc2ccc(F)cc2)cc1C [Example 88] | 10 to 25 | 122 to 132 | 25 to 50 |  | 
34 | Cc1ccc(NS(=O)(=O)/C(C#N)=C/c2ccccc2OCc2ccccc2)c(C)c1 [Example 252] | 10 to 25 | 177 to 179 | 25 to 50 |  | 
35 | COc1cc(OC)c(/C=C(\C#N)S(=O)(=O)Cc2ccc(OC)c(F)c2)c(OC)c1 [Example 39] | 1 to 10 | 162 to 164 | 1 to 10 |  | 
36 | N#C/C(=C\c1ccccc1OCc1ccccc1)S(=O)(=O)Cc1ccccc1 [Example 137] | 50 to 100 | 93 to 97 | > 100 |  | 

Further lines, results first:

Row | IC50 ([1]; Homo sapiens, K562, 96 h) [µM] | melting point [°C] | IC50 (DU145 (prostate cancer); Homo sapiens, DU-145, 96 h) [µM] | IC50 [1] [µM] | IC50 (DU145 (prostate cancer)) [µM] | SMILES
37 | > 100 | 120 to 123 | > 100 |  |  | COc1cc(/C=C(\C#N)S(=O)(=O)Cc2ccc(F)cc2)cc(OC)c1 [Example 86]
38 | > 100 | 142 to 157 | > 100 |  |  | N#C/C(=C\c1ccccc1)S(=O)(=O)Cc1ccc(Cl)cc1 [Example 69]
39 | > 100 | 146 to 150 | > 100 |  |  | CCOc1ccc(/C=C(\C#N)S(=O)(=O)Nc2ccc(C)cc2C)cc1OC [Example 273]
40 | 25 to 50 | 169 to 171 | 50 to 100 |  |  | COc1cc(OC)c(/C=C(\C#N)S(=O)(=O)Nc2ccc(F)cc2)c(OC)c1 [Example 232]
41 | 50 to 100 | 197 to 198 | > 100 |  |  | COc1ccc(NS(=O)(=O)/C(C#N)=C/c2ccccc2O)cc1 [Example 292]
42 | 1 to 10 | 112 to 114 | 1 to 10 |  |  | COc1ccc(NS(=O)(=O)/C(C#N)=C/c2c(F)c(F)c(F)c(F)c2F)cc1OS(=O)(=O)c1ccc(C)cc1 [Example 194, (E)-2-[(4-methoxy-3-(4-methylphenylsulfonyloxy)phenyl)sulfamoyl]-3-(2,3,4,5,6-pentafluorophenyl)acrylonitrile]
43 | 50 to 100 | 140 to 145 | 50 to 100 |  |  | Cc1cc(/C=C(\C#N)S(=O)(=O)Cc2ccc(Cl)cc2)ccc1F [Example 42]
44 | 25 to 50 | 121 to 126 | 25 to 50 |  |  | N#C/C(=C\c1ccc(Cl)cc1Cl)S(=O)(=O)Cc1ccc(Cl)cc1 [Example 51]
45 | 25 to 50 | 192 to 194 | 50 to 100 |  |  | Cc1ccc(NS(=O)(=O)/C(C#N)=C/c2c[nH]c3ccccc23)c(C)c1 [Example 253]
46 | 25 to 50 | 190 to 192 | 50 to 100 |  |  | CN(C)c1ccc(/C=C(\C#N)S(=O)(=O)Nc2ccc(Br)cc2)cc1 [Example 216]
47 | 10 to 25 | 156 to 158 | 50 to 100 |  |  | COc1ccc(NS(=O)(=O)/C(C#N)=C/c2cc(OC)ccc2OC)cc1 [Example 202]
48 | 1 | 144 to 146 | 25 |  |  | COc1ccc(CS(=O)(=O)/C(C#N)=C/c2c(F)c(F)c(F)c(F)c2F)cc1[N+](=O)[O-] [Example 35]
49 | 25 | 154 to 156 | 50 |  |  | N#C/C(=C\c1c(F)c(F)c(F)c(F)c1F)S(=O)(=O)Cc1ccc(Cl)cc1 [Example 21]
50 | 10 to 25 | 200 to 205 | 25 to 50 |  |  | N#C/C(=C\c1c[nH]c2ccccc12)S(=O)(=O)Cc1ccc(Cl)cc1 [Example 68]
51 | > 100 | 122 to 126 | > 100 |  |  | Cc1ccoc1/C=C(\C#N)S(=O)(=O)Cc1cccc(Br)c1 [Example 114]
52 | 50 to 100 | 176 to 179 | 50 to 100 |  |  | Cc1ccsc1/C=C(\C#N)S(=O)(=O)Nc1ccc(Br)cc1 [Example 224]
53 | > 100 | 154 to 156 | > 100 |  |  | COc1ccc(NS(=O)(=O)/C(C#N)=C/c2sccc2C)cc1 [Example 281]
54 | 10 | 202 to 204 | 75 |  |  | N#C/C(=C\c1ccc(C#N)cc1F)S(=O)(=O)Cc1ccc(Br)cc1 [Example 16]

From patent US20090191193A1, “Aryl Vinyl Sulfides, Sulfones, Sulfoxides and Sulfonamides, Derivatives Thereof and Therapeutic Uses Thereof” (TEMPLE UNIVERSITY-OF THE COMMONWEALTH SYSTEM OF HIGHER …, priority 2006, published 2009)
